Assay results taken from patent US7166622B2, “Substituted phenylsulfonamide inhibitors of beta amyloid production” (Wyeth, priority 2002, dated 2007).

Legend:
beta amyloid production = assay: Repressor Release Assay (RRA); assay type: cell-based; details: for fold induction at 10 µg/mL / APPI Fold Increase / APPI % of Example #98: Conc 10 μg/ml; for APPI % of Example #98: relative to Example 98
Procedure, shortened: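 Read-out is luciferase luminescence (RLU) after 36-48 h duplicate compound exposure of transfected CHO-K1 cells. These cells carry transiently introduced APP-lacI and pRSVO-luc DNA. Diluent control was 25 mM Hepes/1% DMSO; toxicity recorded as binary score (1 non-toxic, 0 toxic).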

CHO-K1 cells = assay: Toxicity in RRA (loss of luciferase signal); details: toxicity = loss of signal (<0.75 fold increase)
Description: The beta amyloid inhibitory activity of the compounds of the present invention was determined using the Repressor Release Assay (RRA).
“Fold Increase” refers to the amount of luciferase activity (measured in relative light units) over diluent control. “SEM” refers to the standard error of the mean for fold increase.

[1] = luciferase activity over diluent control, read-out: APPI Fold Increase
[2] = luciferase activity over diluent control

Row | SMILES | fold induction at 10 µg/mL (beta amyloid production; [1]) | (%)APPI Toxicity (CHO-K1 cells; Conc 10 μg/ml) | APPI Fold Increase (beta amyloid production; [2]) | APPI % of Example #98 (beta amyloid production) | fold induction at 20 µg/mL (beta amyloid production; Conc 20 μg/ml, luciferase activity over diluent control, read-out: APPI Fold Increase) | (%)APPI Toxicity (CHO-K1 cells; Conc 20 μg/ml)
1 | CCCCCCC(O)[C@@H](NS(=O)(=O)c1ccccc1F)[C@@H](C)CC (stereo partly drawn) [Example 203, 2-fluoro-N-{(1S)-2-hydroxy-1-[(1S)-1-methylpropyl]octyl}benzenesulfonamide] | 3.47 | 1 (1=non-toxic) |  |  |  | 
2 | CCCCCC(O)[C@@H](NS(=O)(=O)c1ccccc1F)[C@@H](C)CC (stereo partly drawn) [Example 204, 2-fluoro-N-{(1S)-2-hydroxy-1-[(1S)-1-methylpropyl]heptyl}benzenesulfonamide] | 3.73 | 1 (1=non-toxic) |  |  |  | 
3 | CCCCC(O)[C@@H](NS(=O)(=O)c1ccccc1F)[C@@H](C)CC (stereo partly drawn) [Example 205, 2-fluoro-N-{(1S)-2-hydroxy-1-[(1S)-1-methylpropyl]hexyl}benzenesulfonamide] | 1.72 | 1 (1=non-toxic) |  |  |  | 
4 | C=CC(O)[C@@H](NS(=O)(=O)c1ccccc1F)[C@@H](C)CC (stereo partly drawn) [Example 206, 2-fluoro-N-{(1S)-2-hydroxy-1-[(1S)1-methylpropyl]-3-butenyl}benzenesulfonamide] | 1.9 | 1 (1=non-toxic) |  |  |  | 
5 | CC[C@H](C)[C@H](NS(=O)(=O)c1ccccc1F)C(O)c1ccc(F)cc1 (stereo partly drawn) [Example 207, 2-fluoro-N-{(1S,2S)-1-[(4-fluorophenyl) (hydroxy)methyl]-2-methylbutyl}benzenesulfonamide] | 1.81 | 1 (1=non-toxic) |  |  |  | 
6 | CC[C@H](C)[C@H](NS(=O)(=O)c1ccccc1F)C(O)c1ccc(Cl)cc1 (stereo partly drawn) [Example 208, N-{(1S,2S)-1-[(4-chlorophenyl) (hydroxy)methyl]-2-methylbutyl}-2-fluorobenzenesulfonamide] | 2.01 | 1 (1=non-toxic) |  |  |  | 
7 | CC[C@H](C)[C@H](NS(=O)(=O)c1ccccc1F)C(O)c1ccc(OC)cc1 (stereo partly drawn) [Example 209, 2-fluoro-N-{(1S,2S)-1-[hydroxy(4-methoxyphenyl)methyl]-2-methylbutyl} benzenesulfonamide] |  | 1 (1=non-toxic) | 1.81 fold | 88.04% |  | 
8 | CC[C@H](C)[C@H](NS(=O)(=O)c1ccccc1F)C(O)CCC1OCCCO1 (stereo partly drawn) [Example 210, N-{(1S)-4-(1,3-dioxan-2-yl)-2-hydroxy-1-[(1S)-1-methylpropyl]butyl}-2-fluorobenzenesulfonamide] | 1.68 | 1 (1=non-toxic) |  |  |  | 
9 | CC[C@H](C)[C@H](NS(=O)(=O)c1ccc(Br)cc1)C(C)(C)O [Example 211] | 2.09 | 1 (1=non-toxic) |  |  |  | 
10 | CCCCC(O)(CCCC)[C@@H](NS(=O)(=O)c1ccc(Br)cc1)[C@@H](C)CC [Example 213, 4-bromo-N-{(1S)-2-butyl-2-hydroxy-1-[(1S)-1-methylpropyl]hexyl}benzenesulfonamide] | 3.03 | 1 (1=non-toxic) |  |  |  | 
11 | CC[C@H](C)[C@H](NS(=O)(=O)c1ccc(Br)cc1)C(O)(c1ccccc1)c1ccccc1 [Example 215, 4-bromo-N-{(1S,2S)-1-[hydroxy(diphenyl)methyl]-2-methylbutyl}benzenesulfonamide] | 1.65 | 1 (1=non-toxic) |  |  |  | 
12 | CC[C@H](C)[C@H](NS(=O)(=O)c1ccc(Br)cc1)C(O)(CC)CC [Example 217, 4-bromo-N-{(1S)-2-ethyl-2-hydroxy-1-[(1S)-1-methylpropyl]butyl}benzenesulfonamide] | 1.68 | 1 (1=non-toxic) |  |  |  | 
13 | CC[C@H](C)[C@H](NS(=O)(=O)c1ccc(Br)cc1)C(O)(c1ccc(Cl)cc1)c1ccc(Cl)cc1 [Example 218, N-{(1S,2S)-1-[bis(4-chlorophenyl) (hydroxy)methyl]-2-methylbutyl}-4-bromobenzenesulfonamide] | 1.55 | 1 (1=non-toxic) |  |  |  | 
14 | C=C(C)C(O)(C(=C)C)[C@@H](NS(=O)(=O)c1ccc(Br)cc1)[C@@H](C)CC [Example 219, 4-bromo-N-{(1S)-2-hydroxy-2-isopropenyl-3-methyl-1-[(1S)-1-methylpropyl]-3-butenyl}benzenesulfonamide] | 1.8 | 1 (1=non-toxic) |  |  | 2.8 | 1 (1=non-toxic)
15 | C/C=C(\C)C(O)(/C(C)=C/C)[C@@H](NS(=O)(=O)c1ccc(Br)cc1)[C@@H](C)CC (stereo partly drawn) [Example 220, 4-bromo-N-{(1S,3E)-2-hydroxy-3-methyl-2-[(1E)-1-methyl-1-propenyl]-1-[(1S)-1-methylpropyl]-3-pentenyl}benzenesulfonamide] | 3.29 | 1 (1=non-toxic) |  |  |  | 
16 | C=CCCC(O)(CCC=C)[C@@H](NS(=O)(=O)c1ccc(Br)cc1)[C@@H](C)CC [Example 221, 4-bromo-N-{(1S)-2-(3-butenyl)-2-hydroxy-1-[(1S)-1-methylpropyl]-5-hexenyl}benzenesulfonamide] | 5.73 | 1 (1=non-toxic) |  |  |  | 
17 | CC[C@H](C)[C@H](NS(=O)(=O)c1ccc(Br)cc1)C(O)(c1cccc2ccccc12)c1cccc2ccccc12 [Example 222, 4-bromo-N-((1S,2S)-1-{hydroxy[di(1-naphthyl)]methyl}-2-methylbutyl) benzenesulfonamide] |  | 1 (1=non-toxic) | 1.59 fold | 54.46% |  | 
18 | CC[C@H](C)[C@H](NS(=O)(=O)c1ccc(Cl)cc1)C(C)(C)O [Example 223, 4-chloro-N-[(1S,2S)-1-(1-hydroxy-1-methylethyl)-2-methylbutyl]benzenesulfonamide] | 2.33 | 1 (1=non-toxic) |  |  |  | 
19 | CCCCCCC(O)(CCCCCC)[C@@H](NS(=O)(=O)c1ccc(Cl)cc1)[C@@H](C)CC [Example 224, 4-chloro-N-{(1S)-2-hexyl-2-hydroxy-1-[(1S)-1-methylpropyl]octyl}benzenesulfonamide] | 2.22 | 1 (1=non-toxic) |  |  |  | 
20 | CCCCC(O)(CCCC)[C@@H](NS(=O)(=O)c1ccc(Cl)cc1)[C@@H](C)CC [Example 225, N-{(1S)-2-butyl-2-hydroxy-1-[(1S)-1-methylpropyl]hexyl}-4-chlorobenzenesulfonamide] | 6.82 | 1 (1=non-toxic) |  |  |  | 
21 | CC[C@H](C)[C@H](NS(=O)(=O)c1ccc(Cl)cc1)C(O)(CC(C)C)CC(C)C [Example 226, 4-chloro-N-{(1S)-2-hydroxy-2-isobutyl-4-methyl-1-[(1S)-1-methylpropyl]pentyl}benzenesulfonamide] | 4.6 | 1 (1=non-toxic) |  |  |  | 
22 | CC[C@H](C)[C@H](NS(=O)(=O)c1ccc(Cl)cc1)C(O)(c1ccccc1)c1ccccc1 [Example 227, 4-chloro-N-{(1S,2S)-1-[hydroxy(diphenyl)methyl]-2-methylbutyl}benzenesulfonamide] | 1.65 | 1 (1=non-toxic) |  |  |  | 
23 | C=CCC(O)(CC=C)[C@@H](NS(=O)(=O)c1ccc(Cl)cc1)[C@@H](C)CC [Example 228, N-{(1S)-2-allyl-2-hydroxy-1-[(1S)-1-methylpropyl]-4-pentenyl}-4-chloro benzenesulfonamide] |  | 1 (1=non-toxic) | 1.56 fold | 71.57% |  | 
